Measured values from patent US20240228543A1, “CYCLIC PEPTIDE INHIBITORS OF USP22” (THE JOHNS HOPKINS UNIVERSITY, priority 2021, published 2024).
Positions of bridges follow the written chain, without caps; N, C: chain ends. Non-standard residues stand in square brackets, D forms with d. Residues, ends and D or L forms follow the SMILES beside them.

Assays:
[1] = tested on: H2B-Ub levels in HEK293T cells; test: Cell-based assay of H2B-Ub levels (histone extraction, western blot); design: species or system human; conditions: 5 μM, two hours, normalized to H3
Method: Bottom: anti-histone H3 loading control.
Cell-based Assay HEK293T cells were purchased from ATCC (CRL-3216) and cultures were expanded for at least 10 passages in Dulbecco's Modified Eagle Medium (DMEM) supplemented with 10% fetal bovine serum (FBS) in T75 flasks incubated in a 37° C. and 5% CO2 cabinet before any manipulation. Once cells were mature, HEK293T cells were grown to 80% confluence in 6-well plates, the media were aspirated, and media with reduced FBS (DMEM, 2% FBS) and 5 μM cyclic peptide were introduced. After two hours, the media were aspirated, and the cells were collected by scraping (˜1×10^6 cells per well). The cells were then washed in 1× PBS twice followed by histone extraction (Active Motif). The extracted histones were then western blotted for H2B-Ub levels (Cell Signaling, 5546S), using H3 western blotting (Abcam, ab1791) to normalize loading.
Each cyclic peptide was introduced as a supplement to the growth medium of HEK293T cells, the histones were extracted from each culture after two hours of exposure, and the levels of H2B-Ub was quantified by immunoblot. Levels of H2B-Ub were compared to control cells that were treated with DMSO, the yD1 cyclic peptide that has no effect on USP22 activity, or the broad-spectrum cell permeable DUB inhibitor. PR-619. The relative abundance of histone H3 was used to control for differences in nuclear extraction.

[2] = biological target: T1, human DUB module (hDUBm; USP22, ATXN7, ATXN7L3, ENY2) (Homo sapiens, UniProt Q9UPT9); test: Ub-AMC deubiquitination assay, human DUB module; assay type: biochemical; conditions: 200 nM DUB, 1 μM Ub-AMC; read-out: Ki (apparent, Morrison approximation), Ub-AMC cleavage
T1 construct: 6xHis (TEV-cleavable) (N, cleaved yes); made in house; host or cells: High Five insect cells (baculovirus, Bac2Bac; virus amplified in Sf9)
T1 sequence (Q9UPT9 whole entry): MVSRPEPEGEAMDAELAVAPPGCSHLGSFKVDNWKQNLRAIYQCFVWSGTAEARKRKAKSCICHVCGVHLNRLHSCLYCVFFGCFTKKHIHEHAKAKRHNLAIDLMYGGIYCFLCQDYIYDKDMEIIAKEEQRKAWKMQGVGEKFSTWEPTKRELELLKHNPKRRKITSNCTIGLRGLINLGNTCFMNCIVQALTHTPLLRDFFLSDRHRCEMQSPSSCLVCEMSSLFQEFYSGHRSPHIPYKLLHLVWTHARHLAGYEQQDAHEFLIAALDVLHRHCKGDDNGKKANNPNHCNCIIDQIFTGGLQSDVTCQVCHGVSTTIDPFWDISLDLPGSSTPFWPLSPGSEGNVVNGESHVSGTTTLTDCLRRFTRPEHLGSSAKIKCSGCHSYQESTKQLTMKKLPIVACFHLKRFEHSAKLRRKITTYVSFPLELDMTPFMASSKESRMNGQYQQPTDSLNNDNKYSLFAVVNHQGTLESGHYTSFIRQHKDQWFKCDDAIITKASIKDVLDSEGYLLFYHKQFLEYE
T1 sequence (O15265 3-151 partner limits assumed): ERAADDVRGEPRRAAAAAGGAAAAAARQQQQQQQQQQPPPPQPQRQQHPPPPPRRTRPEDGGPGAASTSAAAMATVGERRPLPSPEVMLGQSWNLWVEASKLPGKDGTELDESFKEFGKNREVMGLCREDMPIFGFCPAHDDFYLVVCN
T1 sequence (Q14CW9 whole entry partner): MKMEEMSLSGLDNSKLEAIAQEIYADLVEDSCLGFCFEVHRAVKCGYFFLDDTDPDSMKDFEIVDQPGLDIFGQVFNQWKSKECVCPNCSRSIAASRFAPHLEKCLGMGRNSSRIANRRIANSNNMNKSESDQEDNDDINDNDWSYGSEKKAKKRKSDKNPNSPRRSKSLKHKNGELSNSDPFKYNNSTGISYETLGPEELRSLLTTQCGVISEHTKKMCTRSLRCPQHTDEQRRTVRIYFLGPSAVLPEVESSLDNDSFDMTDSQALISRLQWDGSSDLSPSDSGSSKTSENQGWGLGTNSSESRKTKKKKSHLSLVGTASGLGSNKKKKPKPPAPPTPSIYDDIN
T1 sequence (Q9NPA8 whole entry partner): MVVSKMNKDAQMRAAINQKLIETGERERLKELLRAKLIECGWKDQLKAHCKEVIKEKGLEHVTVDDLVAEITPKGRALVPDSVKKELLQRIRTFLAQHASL
Method: FIG. 2A is a graph of initial rates of Ub-AMC cleavage by hDUB module as a function of substrate concentration. […] FIGS. 2B-2G are graphs of each cyclic peptide, as indicated, tested for its ability to inhibit Ub-AMC cleavage in the presence of increasing amounts of the peptide into a reaction with a fixed amount of DUB (200 nM) and Ub-AMC (1 μM). Ki values were determined for each curve using the Morrison Ki approximation.
Ub-AMC deubiquitination assay A working stock mixture of either yDUBm or hDUBm was prepared in the presence of either DMSO (mock) or a dilution series of the cyclic peptide. […] Each enzyme:peptide mixture was incubated for 30 min at 30° C. in the case of yDUBm, and 37° C. in the case of hDUBm, with each enzyme complex at 1.033× the desired concentration (207 nM). The enzyme:peptide mixture ([…]) was added to 1 μL of 30 μM U b-AMC (7-amino-4-methylcoumarin) (Boston Biochem), for a final concentration of 200 nM DUBm, the indicated cyclic peptide concentration, and 1 μM Ub-AMC. DUB activity was measured by observing the increase in AMC fluorescence in a plate reader, and the initial rate of fluorescence increase was calculated and plotted as a function of inhibitor concentration (FIGS. 2B-2I). The Ki values were determined using the Morrison approximation of enzyme inhibition equilibria within Prism (Graphpad).
The cyclic peptides that constituted potential inhibitors were chemically synthesized by solid phase peptide synthesis and tested for their effectiveness and specificity as inhibitors in vitro. Since the enzyme kinetics of the human DUB module had not previously been characterized, hDUBm activity was assayed using the fluorogenic substrate, ubiquitin-amino methyl coumarin (Ub-AMC) (FIG. 2A).

[3] = biological target: human DUB module (hDUBm) on H2B-K120 ubiquitinated nucleosomes (Homo sapiens, UniProt Q9UPT9); test: Deubiquitination of nucleosomal H2B by hDUBm; conditions: 1 μM cyclic peptide, 200 nM hDUBm, 1 uM H2B-Ub nucleosome
Sequence of human DUB module (hDUBm) on H2B-K120 ubiquitinated nucleosomes (Q9UPT9 whole entry): as the sequence (Q9UPT9 whole entry) above
Sequence of human DUB module (hDUBm) on H2B-K120 ubiquitinated nucleosomes (O15265 3-151 partner limits assumed): as the sequence (O15265 3-151 partner limits assumed) above
Sequence of human DUB module (hDUBm) on H2B-K120 ubiquitinated nucleosomes (Q14CW9 whole entry partner): as the sequence (Q14CW9 whole entry partner) above
Sequence of human DUB module (hDUBm) on H2B-K120 ubiquitinated nucleosomes (Q9NPA8 whole entry partner): as the sequence (Q9NPA8 whole entry partner) above
Method: Deubiquitination of nucleosomal H2B Recombinant human mononucleosomes containing histone H2B ubiquitinated at K120 (H2B-Ub) were obtained from Epicypher (dNuc, 16-0370) and diluted to 2 μM with reaction buffer. Both hDUBm and inhibitor peptides were diluted from concentrated stocks with reaction buffer (10 mM HEPES pH 7.5, 150 mM NaCl, 1 μM ZnCl2, and 0.2 mM TCEP) to a final concentration of 400 nM DUB module and 2 μM cyclic peptide and incubated at 37° C. for 20 minutes. Reactions were initiated by combining equal volumes of the enzyme-peptide mixture and nucleosomes, resulting in final concentrations of 200 nM hDUBm, 1 μM cyclic peptide, and 1 uM H2B-Ub nucleosome. Time points of the reaction were quenched with SDS sample buffer, separated by SDS-PAGE (Invitrogen, Bolt gels), and stained with Sypro Ruby (Life Technologies). Gels were imaged and quantitated (BioRad product info), using the H3 band as an independent load control to normalize the band intensities of H2B-Ub. Experiments were done in triplicate and analyzed using Prism (GraphPad).
To test the effectiveness of the inhibitors on a native-like substrate, the ability of each cyclic peptide to inhibit DUB activity on nucleosomes ubiquitinated at H2B-K120 was assayed.

[4] = Solubility in aqueous conditions; assay type: physicochemical

SMILES	Ki [2]	also measured
N#CSc1cc(SC#N)c(N)nc1N [PR-619]	–	change of H2B-Ub levels [1]: minor increase
CC(C)C[C@@H]1NC(=O)[C@H](Cc2c[nH]c3ccccc23)NC(=O)[C@H](CO)NC(=O)[C@H](CCCNC(=N)N)NC(=O)[C@H](CC(C)C)NC(=O)[C@H](CCCNC(=N)N)NC(=O)[C@H](Cc2ccc(O)cc2)NC(=O)[C@H](Cc2ccc(O)cc2)NC(=O)[C@H](CO)NC(=O)[C@@H]2CCCN2C(=O)CNC(=O)[C@H](CC(N)=O)NC(=O)[C@@H](Cc2ccc(O)cc2)NC(=O)CSC[C@@H](C(N)=O)NC(=O)[C@H](CO)NC(=O)[C@H](CO)NC1=O [hD3] ({CH2CO}-[dY]NGPSYYRLRSWLSSC-NH2; thioether N-16)	–	inhibition of nucleosomal H2B-Ub cleavage by hDUBm [3]: inhibit the enzymatic activity
CC[C@H](C)[C@@H]1NC(=O)[C@H](Cc2c[nH]cn2)NC(=O)[C@H](CC(=O)O)NC(=O)[C@H](CO)NC(=O)[C@H](Cc2c[nH]c3ccccc23)NC(=O)[C@H](Cc2ccccc2)NC(=O)[C@H](CCCNC(=N)N)NC(=O)[C@H](Cc2ccccc2)NC(=O)[C@H](CC(N)=O)NC(=O)[C@H](CC(C)C)NC(=O)[C@H]([C@@H](C)O)NC(=O)[C@H](Cc2ccc(O)cc2)NC(=O)CSC[C@@H](C(N)=O)NC(=O)[C@H](CO)NC(=O)[C@H](Cc2ccc(O)cc2)NC(=O)[C@H](Cc2c[nH]c3ccccc23)NC(=O)[C@H](CO)NC1=O [hL1] ({CH2CO}-YTLNFRFWSDHISWYSC-NH2; thioether N-17)	< 100 nM	–
CC(C)C[C@@H]1NC(=O)[C@H](Cc2ccc(O)cc2)NC(=O)CSC[C@@H](C(N)=O)NC(=O)[C@H](Cc2ccc(O)cc2)NC(=O)[C@H](CC(C)C)NC(=O)[C@H](CCCNC(=N)N)NC(=O)[C@H](CC(C)C)NC(=O)[C@H](CO)NC(=O)[C@H](Cc2c[nH]c3ccccc23)NC(=O)CNC(=O)[C@H](Cc2ccccc2)NC(=O)[C@H](CO)NC(=O)[C@H](Cc2ccccc2)NC(=O)[C@H](C)NC(=O)[C@H](CO)NC(=O)[C@H](CC(=O)O)NC(=O)[C@H](Cc2c[nH]cn2)NC1=O [yL1] ({CH2CO}-YLHDSAFSFGWSLRLYC-NH2; thioether N-17)	–	solubility in aqueous conditions [4]: insoluble in aqueous conditions

Now from value to compound, other results behind:

Ki [2]	SMILES	also measured
< 100 nM	C[C@@H]1NC(=O)CNC(=O)[C@H](CCCNC(=N)N)NC(=O)[C@H](Cc2ccc(O)cc2)NC(=O)[C@H](CO)NC(=O)[C@H](Cc2c[nH]c3ccccc23)NC(=O)[C@H](CCC(N)=O)NC(=O)[C@H](Cc2c[nH]cn2)NC(=O)[C@@H](Cc2ccc(O)cc2)NC(=O)CSC[C@@H](C(N)=O)NC(=O)[C@H](CO)NC(=O)[C@H](CCCNC(=N)N)NC(=O)[C@H](Cc2ccc(O)cc2)NC(=O)[C@H]([C@@H](C)O)NC1=O [hD2] ({CH2CO}-[dY]HQWSYRGATYRSC-NH2; thioether N-14)	–
804 nM	CC[C@H](C)[C@@H]1NC(=O)[C@H](Cc2c[nH]c3ccccc23)NC(=O)[C@@H](Cc2ccc(O)cc2)NC(=O)CSC[C@@H](C(N)=O)NC(=O)[C@H](Cc2ccccc2)NC(=O)[C@H](CO)NC(=O)[C@H](CCCCN)NC(=O)[C@H](CO)NC(=O)[C@H](CC(C)C)NC(=O)CNC(=O)[C@H](CCCNC(=N)N)NC(=O)[C@H](Cc2ccc(O)cc2)NC(=O)[C@H](CO)NC(=O)[C@H](Cc2c[nH]cn2)NC(=O)[C@H]([C@@H](C)O)NC1=O [hD4] ({CH2CO}-[dY]WITHSYRGLSKSFC-NH2; thioether N-15)	–
